How the values were obtained:
[1] = xn = mol fraction of the nth substance listed; settings: 101 kPa, Liquid
[2] = refractive index (Na D-line) (dimensionless); xn = mol fraction of the nth substance listed; settings: 101 kPa, Liquid

COc1ccccc1 [anisole] + CCCCCC
Settings | mass density, 293.15 K [kg/m3] | mass density, 298.15 K [kg/m3] | mass density, 303.15 K [kg/m3] | refractive index, 293.15 K | refractive index, 298.15 K | refractive index, 303.15 K | viscosity, 293.15 K [mPa·s] | viscosity, 298.15 K [mPa·s] | viscosity, 303.15 K [mPa·s]
[1], x1 = 0.0993 | 688.1 | 683.56 | 678.98 | – | – | – | 0.3336 | 0.3159 | 0.305
[1], x1 = 0.1959 | 716.85 | 712.32 | 707.69 | – | – | – | 0.3594 | 0.3451 | 0.3257
[1], x1 = 0.3008 | 749.04 | 744.42 | 739.83 | – | – | – | 0.3971 | 0.3776 | 0.3565
[1], x1 = 0.3998 | 780.42 | 775.78 | 771.15 | – | – | – | 0.4376 | 0.4157 | 0.396
[1], x1 = 0.5045 | 814.71 | 810.08 | 805.39 | – | – | – | 0.4958 | 0.4701 | 0.4451
[1], x1 = 0.5936 | 844.84 | 840.19 | 835.52 | – | – | – | 0.5596 | 0.529 | 0.5002
[1], x1 = 0.6834 | 876.15 | 871.52 | 866.76 | – | – | – | 0.6392 | 0.6028 | 0.5681
[1], x1 = 0.7909 | 914.94 | 910.25 | 905.45 | – | – | – | 0.756 | 0.71 | 0.6685
[1], x1 = 0.8975 | 954.65 | 949.92 | 945.31 | – | – | – | 0.9044 | 0.8483 | 0.7899
[1], x1 = 1 | 993.81 | 989.15 | 984.42 | – | – | – | 1.085 | 1.017 | 0.9285
[2], x1 = 0.095 | – | – | – | 1.3873 | 1.3844 | 1.3819 | – | – | –
[2], x1 = 0.193 | – | – | – | 1.399 | 1.3952 | 1.3931 | – | – | –
[2], x1 = 0.288 | – | – | – | 1.4109 | 1.4081 | 1.4061 | – | – | –
[2], x1 = 0.391 | – | – | – | 1.4243 | 1.4217 | 1.4197 | – | – | –
[2], x1 = 0.5121 | – | – | – | 1.4408 | 1.4382 | 1.4365 | – | – | –
[2], x1 = 0.5942 | – | – | – | 1.4525 | 1.45 | 1.4483 | – | – | –
[2], x1 = 0.678 | – | – | – | 1.4651 | 1.4626 | 1.4609 | – | – | –
[2], x1 = 0.779 | – | – | – | 1.4807 | 1.4783 | 1.4767 | – | – | –
[2], x1 = 0.881 | – | – | – | 1.497 | 1.4946 | 1.4931 | – | – | –
[2], x1 = 1 | – | – | – | 1.5161 | 1.5141 | 1.5129 | – | – | –

Reference: the NIST ThermoML archive (doi:10.1016/j.jct.2004.09.021)
